Reference: patent publication US8946270B2, “Amido-pyridyl ether compounds and compositions and their use against parasites” (Merial Limited, priority 2011, dated 2015)
Where two headings read alike, the source gives them in different places.

What was measured:
[1] = system: Rhipicephalus sanguineus (Brown Dog Tick); experiment: whole plant or invertebrate; settings: for Contact SP Rhicicep PCT Mortality (%): 200 ppm; for mortality at 200 ppm: Rhipicephalus sanguineus, read-out: Contact SP Rhicicep PCT Mortality (%)
Text: A solution of the test compound was used to coat the inner wall of glass vials and to treat two filter papers. Once dried, one filter paper was placed in the cap of the vial and the other in the bottom of the vial. Each treated vial was infested with 10 adult Rhipicephalus sanguineus (Brown Dog Tick). […]

[2] = system: Haematobia irritans; experiment: whole plant or invertebrate; settings: 5 μg/cm^2
Description: A solution of the test compound was used to treat a filter paper contained within a Petri dish and the filter paper was allowed to evaporate to dryness. A small piece of absorbent cotton moistened with 10% sucrose and ten adult flies (Haematobia irritans or Stomoxys calcitrans) were added to each dish. Dishes were capped and held at room temperature. Assessments were performed at 4 and 24 hours after infestation in comparison with untreated controls.

Structure (SMILES) | Contact SP Rhicicep PCT Mortality (%) ([1]; timepoint 4 hrs) | Contact SP Rhicicep PCT Mortality (%) ([1]; timepoint 24 hrs) | mortality at 200 ppm ([1]; timepoint 4 hrs) [%] | mortality at 200 ppm ([1]; timepoint 24 hrs) [%] | further results
COC(CNC(=O)c1ccc(COc2cccc(-c3cccc(F)c3)c2)cn1)OC [Compound 167] | 100 | 100 | – | – | –
CSCCNC(=O)c1ccc(COc2cccc(-c3cccc(F)c3)c2)cn1 [Compound 174] | 90 | 100 | – | – | –
CCC(C)CNC(=O)c1ccc(COc2cccc(-c3cccc(F)c3)c2)cn1 (stereo not shown) [Compound 181] | 70 | 90 | – | – | –
CCOc1cccc(OCc2ccc(C(=O)NCC(C)C)nc2)c1 [Compound 199] | 100 | 100 | – | – | –
O=C(NCC1CC1)c1ccc(CCOc2cccc(C(F)(F)F)c2)cn1 [Compound 208] | – | – | – | – | Contact SP Horn Fly PCT Mortality (%) ([2]; timepoint 4 hrs): 100%; Contact SP Horn Fly PCT Mortality (%) ([2]; timepoint 24 hrs): 100%
CC(C)CNC(=O)c1ccc(CCOc2cccc(C(F)(F)F)c2)cn1 [Compound 209] | – | – | 90 | 100 | –
CC(C)(C)CNC(=O)c1ccc(COCc2ccc(Cl)cc2)cn1 [Compound 216] | 0 | 60 | – | – | –
O=C(NCC1CCOCC1)c1ccc(CCOc2cccc(C(F)(F)F)c2)cn1 [Compound 220] | – | – | 100 | 100 | –
CCC(C)CNC(=O)c1ccc(CCOc2cccc(C(F)(F)F)c2)cn1 (stereo not shown) [Compound 221] | – | – | 90 | 100 | –
CC(C)CNC(=O)c1ccc(CCOc2ccc(F)c(OC(F)(F)F)c2)cn1 [Compound 222] | 90 | 100 | – | – | –
CC(C)CNC(=O)c1ccc(CCOc2cc(Cl)cc(Cl)c2)cn1 [Compound 225] | – | – | 90 | 100 | –
CC(C)CNC(=O)c1ccc(COCc2ccc(Cl)c(OC(F)(F)F)c2)cn1 [Compound 227] | 100 | 100 | – | – | –
CC(C)CNC(=O)c1ccc(COCc2ccc(F)c(OC(F)(F)F)c2)cn1 [Compound 228] | – | – | 90 | 90 | –
CC(C)CNC(=O)c1ccc(COCc2cc(F)cc(C(F)(F)F)c2)cn1 [Compound 229] | – | – | 80 | 80 | –
CC(C)CNC(=O)c1ccc(COCc2ccc(C(F)(F)F)cc2F)cn1 [Compound 232] | – | – | 100 | 100 | –
CC(C)CNC(=O)c1ccc(COCc2ccc(Cl)cc2)cn1 [Compound 234] | – | – | 90 | 90 | –
CC(C)CNC(=O)c1ccc(CCOc2ccc(Br)c(OC(F)(F)F)c2)cn1 [Compound 237] | – | – | 90 | 100 | –
CC(C)CCNC(=O)c1ccc(CCOc2cccc(OC(F)(F)F)c2)cn1 [Compound 240] | – | – | 90 | 90 | –
CCC(C)NC(=O)c1ccc(CCOc2cccc(OC(F)(F)F)c2)cn1 (stereo not shown) [Compound 241] | – | – | 50 | 90 | –
CCC(C)CNC(=O)c1ccc(CCOc2cccc(OC(F)(F)F)c2)cn1 (stereo not shown) [Compound 242] | – | – | 70 | 90 | –
O=C(NCC1CCOCC1)c1ccc(COc2ccc(C(F)(F)F)cc2Br)cn1 [Compound 256] | 90 | 100 | – | – | –
O=C(NCC1CCOCC1)c1ccc(COc2ccc(C(F)(F)F)cc2F)cn1 [Compound 257] | 80 | 90 | – | – | –
O=C(NCC1CCOCC1)c1ccc(COCc2ccc(Cl)cc2)cn1 [Compound 259] | – | – | 80 | 90 | –
O=C(NCC1CCOCC1)c1ccc(COCc2ccccc2Cl)cn1 [Compound 260] | 90 | 100 | – | – | –
O=C(NCC1CCOCC1)c1ccc(COCc2ccccc2C(F)(F)F)cn1 [Compound 266] | – | – | 70 | 90 | –
CC(C)CNC(=O)c1ccc(CCOc2cc(F)cc(C(F)(F)F)c2)cn1 [Compound 278] | 70 | 100 | – | – | –
CC(C)CNC(=O)c1ccc(COCc2ccc(C(F)(F)F)c(F)c2)cn1 [Compound 283] | 100 | 100 | – | – | –
CC(C)CNC(=O)c1ccc(COCc2ccc(C(F)(F)F)c(Cl)c2)cn1 [Compound 284] | 90 | 100 | – | – | –
CC(C)CNC(=O)c1ccc(COCc2cccc(F)c2F)cn1 [Compound 290] | 80 | 80 | – | – | –
